According to publication PMC12683216, “Using High‐Throughput Screening to Identify Crosslinking Peptides That Control Cell‐Mediated Matrix Degradation” (Advanced Healthcare Materials, 2025):
Where a SMILES comes first, the peptide text is derived from it. [ ]: non-standard residue; d: D form. βAla = NCCC(=O)O

Experiments:
Assay type in all cases: in vitro ADME, human
[1] = Soluble peptide degradation, Cells condition (LC-MS); details: human
Experimental: (§1) Most in vitro protease activity assays incubate the peptides or proteins of interest with a single protease in a buffered solution. However, the kinetics of protease activity in tissues are complex and highly regulated, and both the activity^[ [37] ^] and substrate specificity^[ [38] ^] of proteases can be modulated through association with other proteins.^[ [39] ^] Most MMP‐substrate peptides are also cleaved by multiple proteases,^[ [5] ^] and within the context of biomaterials, the most important factor is typically how the combined activity of all proteases, rather than the activity of any specific protease, modifies the local microenvironment versus the activity due to any individual enzyme. We synthesized peptides identified in the TAILS proteomic screen that were present on proteins that are known to be secreted or found on the cell membrane, pooled them, and added them either to cell culture media on top of cells, the “Cells” condition, or conditioned media lacking cells, the “Media” condition (Figure 2A). The fraction of peptides remaining after 24 h in each condition was then quantified using LC‐MS. Soluble proteases should be present in both conditions, however, membrane‐type proteases should primarily be found in the samples containing cells and not the conditioned media samples. A key benefit of this approach is that it surveys the total functional proteolytic activity, including the effects of inhibitors and co‐factors, and quantifies the degradation rate of soluble peptides by the complete secretome of different cell types.
(§2) hUVECs (75000 per well) or hMSCs (36000 per well) were seeded into a 48 well plate, and 500 µL media was added to the wells. […] The peptide libraries were dissolved at a stock solution of 10 mM total peptide content. For libraries containing 38 peptides, 95 µL of the stock solution was added to each well; for libraries with 19 peptides, 47.5 µL was added to each well, and media was taken at 0 and 24 h. Add 4 µL of acetic acid to all collected media in the LC‐MS plates and store them in a −80 °C freezer to prevent further proteolytic degradation. From each sample, 10 µL of crude solution was introduced by the LC‐MS through a Thermo Scientific Vanquish LC System (Thermo Fisher Scientific), which outputted to a Thermo Scientific LTQ XL Linear Ion Trap Mass Spectrometer (Thermo Fisher Scientific). The sampled mixture was trapped on a column (ProntoSIL C18 AQ, 120 Å, 3 µm, 2.0 x 50 mm HPLC Column, PN 0502F184PS030, MAC‐MOD Analytical Inc.). The samples were loaded onto the column with a solvent containing acetonitrile/water, 5:95 (v/v) containing 1% acetic acid at a flow rate of 300 µL min^−1 and held for 1 min. The sample was then eluted from the column with a linear gradient of 5–40% Solvent B (1% acetic acid in acetonitrile) at the same flow rate for 5 min. This was followed by a 1 min ramp up to 100% Solvent B, where it was re‐equilibrated with Solvent A (1% acetic acid) to 5% solvent B over the course of 1 min and held there for 2 min. The column temperature was kept at a constant 29 °C, and the mass spectrometer was operated in positive ion mode. Using a Heated ESI, the Source Voltage was set to 4.1 kV, and the capillary temperature was 350 °C. For non‐library degradation studies, 2.5 µL of 10 mM peptide stock solution for each peptide was added.
(§3) In the MMP‐14 inhibitor study, the MMP‐14 inhibitor NSC 405 020 (Cayman Chemical Company) was dissolved in DMSO to make a 10 mM stock solution and stored in −20 °C freezer. 0.5 µL MMP‐14 inhibitor stock solution was added to each well to achieve a 10 µM final concentration.
(§4) For all degradation studies using soluble peptides, a non‐proteolytically degradable NH2‐βFβAβAβAβAβAβA‐amide (βFβA6) peptide, where βF is β‐phenylalanine and βA is β‐alanine, was added at a 50 µM concentration and used as an internal standard. Peptide degradation ratios were measured by LC‐MS and analyzed by Xcalibur. […]

MMP-14 = assay: as above; details: human, cells or culture medium
Experimental: as §1, §2, §3, §4

[2] = Soluble peptide degradation, Media condition (cell-conditioned media, LC-MS); details: human; for remaining at 24 h: LC-MS
Experimental: as §1, §2
(§5) To assess the activity of the conditioned media, the media were divided into two equal portions. One portion was used for a standard degradation study, while the other was cultured for an additional 24 h before the PanMMP and KLVADLMASAE were added. After 24 h of incubation, the media were collected for further analysis. To assess the impact of recombinant MMP‐14 on PanMMP and KLVADLMASAE, recombinant MMP‐14 (antibodies.com) was dissolved in the media at a concentration of 0.5 nM. The remaining steps followed the standard degradation study protocol. […]

hUVECs = assay: Soluble peptide degradation, Cells condition (LC-MS); details: Figure 3B heatmap; split-and-pool libraries KLVADX1X2ASAE in media on hUVECs; 24 h; LC-MS, ratio to βFβA6; N = 2
Experimental: as §1, §2, §3, §4

[3] = Soluble peptide degradation, Media condition (cell-conditioned media, LC-MS); details: human, 24 h, LC-MS
Experimental: as §1, §2, §5

[4] = hMSCs in culture with fresh media (Cells condition), Figure 3B heatmap, split-and-pool libraries KLVADX1X2ASAE (19 or 38 peptides per library) in media on hMSCs, 24 h, LC-MS, ratio to βFβA6, N = 2, read-out: Fraction of peptide remaining after 24 hours: hMSC Cells
[5] = hUVEC-conditioned media without cells (Media condition), Figure 3B heatmap, split-and-pool libraries KLVADX1X2ASAE in hUVEC-conditioned media without cells, ratio to βFβA6, N = 2, read-out: Fraction of peptide remaining after 24 hours: hUVEC Media
[6] = hMSC-conditioned media without cells (Media condition), Figure 3B heatmap, split-and-pool libraries KLVADX1X2ASAE in hMSC-conditioned media without cells, ratio to βFβA6, N = 2, read-out: Fraction of peptide remaining after 24 hours: hMSC Media
[7] = hMSCs in culture with fresh media (Cells condition), Figure 2B heatmap, pooled TAILS-derived soluble peptides (Ac-βAla N-terminus, βAla-amide C-terminus) in media on hMSCs (36000 per well, 48 well plate, 500 µL), 24 h, LC-MS, ratio to βFβA6 internal standard, 24 h / 0 h, N = 5, read-out: Fraction of peptide remaining at 24 hours: hMSC Cells
[8] = Figure 2B heatmap, pooled TAILS-derived soluble peptides in 24 h hUVEC-conditioned media without cells, ratio to βFβA6 internal standard, 24 h / 0 h, N = 5, read-out: Fraction of peptide remaining at 24 hours: hUVEC Media
[9] = Figure 2B heatmap, pooled TAILS-derived soluble peptides in 24 h hMSC-conditioned media without cells, ratio to βFβA6 internal standard, 24 h / 0 h, N = 5, read-out: Fraction of peptide remaining at 24 hours: hMSC Media
[10] = hUVECs in culture with fresh media (Cells condition), Figure 3B heatmap, split-and-pool libraries KLVADX1X2ASAE in media on hUVECs, 24 h, LC-MS, ratio to βFβA6, N = 2, read-out: Fraction of peptide remaining after 24 hours: hUVEC Cells

Row | SMILES | remaining at 24 h [1, 4] | remaining at 24 h [3, 5] | remaining at 24 h [2, 6] | remaining at 24 h [1, 7] | remaining at 24 h [3, 8] | remaining at 24 h [2, 9] | remaining at 24 h [1, 10] | other results
1 | CC(=O)NCCC(=O)N[C@@H](CCCCN)C(=O)N[C@@H](CC(C)C)C(=O)N[C@H](C(=O)N[C@@H](C)C(=O)N[C@@H](CC(=O)O)C(=O)N1CCC[C@H]1C(=O)N[C@@H](CC(C)C)C(=O)N[C@@H](C)C(=O)N[C@@H](CO)C(=O)N[C@@H](C)C(=O)N[C@@H](CCC(=O)O)C(=O)NCCC(N)=O)C(C)C [KLVAD-PL] (Ac-[βAla]KLVADPLASAE[βAla]-NH2) | – | – | – | – | – | – | – | remaining at 24 h ([1]; cells or culture medium): 83%; remaining at 24 h ([1]; cells or culture medium, Fraction of peptide remaining after 24 hours: hMSC Cells): 51%; remaining at 24 h, 50 µM (MMP-14): 99%; remaining at 24 h, 50 µM (MMP-14; Fraction of peptide remaining after 24 hours: hMSC +Inhibitor): 94%; remaining at 24 h, 50 µM ([2]; cells or culture medium): 91%
2 | CC(=O)NCCC(=O)N[C@@H](CCCCN)C(=O)N[C@@H](CC(C)C)C(=O)N[C@H](C(=O)N[C@@H](C)C(=O)N[C@@H](CC(=O)O)C(=O)N[C@@H](CCC(=O)O)C(=O)N1CCC[C@H]1C(=O)N[C@@H](C)C(=O)N[C@@H](CO)C(=O)N[C@@H](C)C(=O)N[C@@H](CCC(=O)O)C(=O)NCCC(N)=O)C(C)C [Glu-Pro] (Ac-[βAla]KLVADEPASAE[βAla]-NH2) | 49% | 96% | 79% | – | – | – | – | Fraction of peptide remaining after 24 hours: hUVEC Cells (hUVECs): 0.89
3 | CC(=O)NCCC(=O)N[C@@H](C)C(=O)N[C@@H](CO)C(=O)N[C@@H](C)C(=O)N1CCC[C@H]1C(=O)N[C@@H](C)C(=O)N[C@@H](CCCNC(=N)N)C(=O)N1CCC[C@H]1C(=O)N[C@@H](C)C(=O)N[C@@H](CC(C)C)C(=O)N[C@@H](CO)C(=O)NCCC(N)=O [ASAPARPALS] (Ac-[βAla]ASAPARPALS[βAla]-NH2) | – | – | – | 88% | 94% | 96% | – | –
4 | CC[C@H](C)[C@H](NC(=O)[C@H](CCCCN)NC(=O)[C@@H](NC(=O)[C@H](CO)NC(=O)[C@H](CO)NC(=O)[C@@H]1CCCN1C(=O)CCNC(C)=O)[C@@H](C)CC)C(=O)N[C@@H](CCCCN)C(=O)N[C@@H](CO)C(=O)N[C@@H](C)C(=O)N[C@@H](CC(=O)O)C(=O)N[C@@H](CCCCN)C(=O)NCCC(N)=O [PSSIKIKSADK] (Ac-[βAla]PSSIKIKSADK[βAla]-NH2) | – | – | – | 81% | 93% | 90% | – | remaining at 24 h ([1]; hUVECs in culture with fresh media (Cells condition), Figure 2B heatmap, pooled TAILS-derived soluble peptides in media on hUVECs (75000 per well, 48 well plate, 500 µL), 24 h, LC-MS, ratio to βFβA6 internal standard, 24 h / 0 h, N = 5, read-out: Fraction of peptide remaining at 24 hours: hUVEC Cells): 86%
5 | CC(=O)NCCC(=O)N[C@@H](CCCCN)C(=O)N[C@@H](CC(C)C)C(=O)N[C@H](C(=O)N[C@@H](C)C(=O)N[C@@H](CC(=O)O)C(=O)N[C@@H](CO)C(=O)N[C@@H](Cc1c[nH]c2ccccc12)C(=O)N[C@@H](C)C(=O)N[C@@H](CO)C(=O)N[C@@H](C)C(=O)N[C@@H](CCC(=O)O)C(=O)NCCC(N)=O)C(C)C [Ser-Trp] (Ac-[βAla]KLVADSWASAE[βAla]-NH2) | 40% | 95% | 72% | – | – | – | 86% | –

Further lines, with some results ahead:

Row | remaining at 24 h [1, 4] | remaining at 24 h [3, 5] | remaining at 24 h [2, 6] | remaining at 24 h [1, 7] | remaining at 24 h [3, 8] | remaining at 24 h [2, 9] | remaining at 24 h [1, 10] | SMILES | other results
6 | 41% | 97% | 73% | – | – | – | 84% | CC(=O)NCCC(=O)N[C@@H](CCCCN)C(=O)N[C@@H](CC(C)C)C(=O)N[C@H](C(=O)N[C@@H](C)C(=O)N[C@@H](CC(=O)O)C(=O)N1CCC[C@H]1C(=O)N[C@@H](Cc1ccccc1)C(=O)N[C@@H](C)C(=O)N[C@@H](CO)C(=O)N[C@@H](C)C(=O)N[C@@H](CCC(=O)O)C(=O)NCCC(N)=O)C(C)C [Pro-Phe] (Ac-[βAla]KLVADPFASAE[βAla]-NH2) | –
7 | 48% | 94% | 71% | – | – | – | 84% | CC(=O)NCCC(=O)N[C@@H](CCCCN)C(=O)N[C@@H](CC(C)C)C(=O)N[C@H](C(=O)N[C@@H](C)C(=O)N[C@@H](CC(=O)O)C(=O)N[C@@H](CO)C(=O)N[C@@H](CC(=O)O)C(=O)N[C@@H](C)C(=O)N[C@@H](CO)C(=O)N[C@@H](C)C(=O)N[C@@H](CCC(=O)O)C(=O)NCCC(N)=O)C(C)C [Ser-Asp] (Ac-[βAla]KLVADSDASAE[βAla]-NH2) | –
8 | – | – | – | 73% | 99% | 92% | – | CC[C@H](C)[C@H](NC(=O)[C@H](Cc1c[nH]cn1)NC(=O)[C@H](CCC(=O)O)NC(=O)[C@@H]1CCCN1C(=O)[C@H](Cc1ccccc1)NC(=O)[C@H](CC(N)=O)NC(=O)CCNC(C)=O)C(=O)N[C@@H](Cc1ccccc1)C(=O)N1CCC[C@H]1C(=O)N[C@@H](C)C(=O)N[C@@H](CC(C)C)C(=O)N[C@@H](C)C(=O)NCCC(N)=O [NFPEHIFPALA] (Ac-[βAla]NFPEHIFPALA[βAla]-NH2) | –
9 | 35% | 96% | 65% | – | – | – | 89% | CC(=O)NCCC(=O)N[C@@H](CCCCN)C(=O)N[C@@H](CC(C)C)C(=O)N[C@H](C(=O)N[C@@H](C)C(=O)N[C@@H](CC(=O)O)C(=O)N[C@@H](Cc1ccc(O)cc1)C(=O)N1CCC[C@H]1C(=O)N[C@@H](C)C(=O)N[C@@H](CO)C(=O)N[C@@H](C)C(=O)N[C@@H](CCC(=O)O)C(=O)NCCC(N)=O)C(C)C [Tyr-Pro] (Ac-[βAla]KLVADYPASAE[βAla]-NH2) | –
